Reference: paper PMC11284788, “NN1213 – A Potent, Long-Acting, and Selective Analog of Human Amylin” (Journal of Medicinal Chemistry, 2024)
Like-named read-outs stand apart in the source and are kept apart here. Numbered stars: 1 amine (or outer) side, 2 acyl side, 3 side chain; on linkers, the order of the positions; unused ones are H or OH. Bridge positions count the residues as written; N and C are the ends. Side chains are listed from the residue outwards. Peptide text beside a SMILES is read from it. * marks the point of attachment. C20 diacid = O=C(O)CCCCCCCCCCCCCCCCCCC(=O)*; γGlu = O=C(O)[C@H](CCC(=O)[*:2])N[*:1]; AEEA = NCCOCCOCC(=O)O

Legend:
hCTR = biological target: T1, hCTR (Homo sapiens, UniProt P30988); experiment: cAMP-responsive element luciferase reporter assay, human CTR; assay type: cell-based; details: luciferase (human receptor assay)
T1 sequence (P30988 25-474): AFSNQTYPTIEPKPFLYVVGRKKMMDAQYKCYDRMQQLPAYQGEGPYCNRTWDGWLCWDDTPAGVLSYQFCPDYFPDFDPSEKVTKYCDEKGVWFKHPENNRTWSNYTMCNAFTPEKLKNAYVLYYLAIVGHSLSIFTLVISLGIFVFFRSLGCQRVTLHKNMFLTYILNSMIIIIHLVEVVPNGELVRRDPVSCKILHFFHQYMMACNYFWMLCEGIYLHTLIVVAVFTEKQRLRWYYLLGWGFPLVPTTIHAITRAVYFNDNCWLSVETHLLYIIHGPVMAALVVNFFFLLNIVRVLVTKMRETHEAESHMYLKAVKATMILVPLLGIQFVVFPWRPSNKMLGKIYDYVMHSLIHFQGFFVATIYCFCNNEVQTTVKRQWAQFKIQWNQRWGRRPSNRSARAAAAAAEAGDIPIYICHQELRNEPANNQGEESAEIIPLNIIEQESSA

rats = experiment: Acute food intake in rats; assay type: in vivo, rat; details: single sc injection of 30 nmol/kg, relative to vehicle, mean ± SEM, n = 5–7 per group
[1] = Tables S12 and S14, read-out: hCTR pEC50 (converted)
[2] = BHK cells stably expressing hCTR and CRE-luciferase, 3 h, 37 °C, 10% FBS, read-out: hCTR EC50

Row | SMILES | EC50 (hCTR; [1]) [nM] | EC50 (hCTR; [2]) [nM] | hCTR pEC50 (hCTR; Tables S12 and S14) | Acute food intake reduction 24–48 h (rats) [%]
1 | CC(C)C[C@H](NC(=O)[C@H](CCCNC(=N)N)NC(=O)[C@H](CCC(N)=O)NC(=O)[C@@H](NC(=O)[C@H](C)NC(=O)[C@@H]1CSSC[C@H](NC(=O)[C@@H](N)CCCCNC(=O)CC[C@H](NC(=O)CC[C@H](NC(=O)CCCCCCCCCCCCCCCCCCC(=O)O)C(=O)O)C(=O)O)C(=O)N[C@@H](CC(N)=O)C(=O)N[C@@H]([C@@H](C)O)C(=O)N[C@@H](C)C(=O)N[C@@H]([C@@H](C)O)C(=O)N1)[C@@H](C)O)C(=O)N[C@@H](C)C(=O)N[C@@H](CC(=O)O)C(=O)N[C@@H](Cc1ccccc1)C(=O)N[C@@H](CC(C)C)C(=O)N[C@@H](CCCNC(=N)N)C(=O)N[C@@H](Cc1c[nH]cn1)C(=O)N[C@@H](CO)C(=O)N[C@@H](CO)C(=O)N1CCC[C@H]1C(=O)N[C@@H](CC(N)=O)C(=O)N[C@@H](Cc1ccccc1)C(=O)NCC(=O)N[C@@H](C)C(=O)N1CCC[C@H]1C(=O)N[C@@H](CC(C)C)C(=O)N[C@@H](CO)C(=O)N[C@@H](CO)C(=O)N[C@H](C(=O)N[C@@H](CC(N)=O)C(=O)N[C@H](C(=O)NCC(=O)N[C@@H](CO)C(=O)N[C@@H](CC(=O)O)C(=O)N[C@H](C(=O)N[C@@H](Cc1ccc(O)cc1)C(N)=O)[C@@H](C)O)C(C)C)[C@@H](C)O [Peptide 5] (H-K([γGlu-γGlu-C20 diacid])CNTATCATQRLADFLRHSSPNFGAPLSSTNVGSDTY-NH2; disulfide 2-7) | 2.57 | 2.58 |  | 
2 | CC[C@H](C)[C@H](NC(=O)[C@H](C)NC(=O)CNC(=O)[C@H](Cc1ccccc1)NC(=O)[C@H](CC(N)=O)NC(=O)[C@@H]1CCCN1C(=O)[C@H](CO)NC(=O)[C@H](CO)NC(=O)[C@H](Cc1c[nH]cn1)NC(=O)[C@H](CCCNC(=N)N)NC(=O)[C@H](CC(C)C)NC(=O)[C@H](Cc1ccccc1)NC(=O)[C@H](CC(N)=O)NC(=O)[C@H](C)NC(=O)[C@H](CC(C)C)NC(=O)[C@H](CCCNC(=N)N)NC(=O)[C@H](CCC(N)=O)NC(=O)[C@@H](NC(=O)[C@H](C)NC(=O)[C@@H]1CSSC[C@H](NC(=O)[C@H](CCCCN)NC(=O)COCCOCCNC(=O)CC[C@H](NC(=O)CCCCCCCCCCCCCCCCCCC(=O)O)C(=O)O)C(=O)N[C@@H](CC(N)=O)C(=O)N[C@@H]([C@@H](C)O)C(=O)N[C@@H](C)C(=O)N[C@@H]([C@@H](C)O)C(=O)N1)[C@@H](C)O)C(=O)N1CCC[C@H]1C(=O)N[C@@H](CO)C(=O)N[C@@H](CO)C(=O)N[C@H](C(=O)N[C@@H](CC(N)=O)C(=O)N[C@H](C(=O)NCC(=O)N[C@@H](CO)C(=O)N[C@@H](Cc1c[nH]cn1)C(=O)N[C@H](C(=O)N[C@@H](Cc1ccc(O)cc1)C(N)=O)[C@@H](C)O)C(C)C)[C@@H](C)O [Peptide 18] ({C20 diacid-γGlu-AEEA}-KCNTATCATQRLANFLRHSSPNFGAIPSSTNVGSHTY-NH2; disulfide 2-7; N-terminus assumed) |  |  |  | 3 ± 6
3 | CC[C@H](C)[C@H](NC(=O)[C@H](C)NC(=O)CNC(=O)[C@H](Cc1ccccc1)NC(=O)[C@H](CC(N)=O)NC(=O)[C@@H]1CCCN1C(=O)[C@H](CO)NC(=O)[C@H](CO)NC(=O)[C@H](Cc1c[nH]cn1)NC(=O)[C@H](CCCNC(=N)N)NC(=O)[C@H](CC(C)C)NC(=O)[C@H](Cc1ccccc1)NC(=O)[C@H](CCC(=O)O)NC(=O)[C@H](C)NC(=O)[C@H](CC(C)C)NC(=O)[C@H](CCCNC(=N)N)NC(=O)[C@H](CCC(N)=O)NC(=O)[C@@H](NC(=O)[C@H](C)NC(=O)[C@@H]1CSSC[C@H](NC(=O)[C@@H](N)CCCCNC(=O)CC[C@H](NC(=O)CCCCCCCCCCCCCCCCCCC(=O)O)C(=O)O)C(=O)N[C@@H](CC(N)=O)C(=O)N[C@@H]([C@@H](C)O)C(=O)N[C@@H](C)C(=O)N[C@@H]([C@@H](C)O)C(=O)N1)[C@@H](C)O)C(=O)N1CCC[C@H]1C(=O)N[C@@H](CO)C(=O)N[C@@H](CO)C(=O)N[C@H](C(=O)N[C@@H](CC(N)=O)C(=O)N[C@H](C(=O)NCC(=O)N[C@@H](CO)C(=O)N[C@@H](CCCNC(=N)N)C(=O)N[C@H](C(=O)N[C@@H](Cc1ccc(O)cc1)C(N)=O)[C@@H](C)O)C(C)C)[C@@H](C)O [Peptide 20] (H-K([γGlu-C20 diacid])CNTATCATQRLAEFLRHSSPNFGAIPSSTNVGSRTY-NH2; disulfide 2-7) |  | 5.2 | 8.28 | 

Second part, led by results:

Row | EC50 (hCTR; [1]) [nM] | EC50 (hCTR; [2]) [nM] | hCTR pEC50 (hCTR; Tables S12 and S14) | SMILES | Acute food intake reduction 24–48 h (rats) [%]
4 | 3.02 | 3 |  | CC[C@H](C)[C@H](NC(=O)[C@@H]1CCCN1C(=O)CNC(=O)[C@H](Cc1ccccc1)NC(=O)[C@H](CC(N)=O)NC(=O)[C@@H]1CCCN1C(=O)[C@H](CO)NC(=O)[C@H](CO)NC(=O)[C@H](Cc1c[nH]cn1)NC(=O)[C@H](CCCNC(=N)N)NC(=O)[C@H](CC(C)C)NC(=O)[C@H](Cc1ccccc1)NC(=O)[C@H](CC(=O)O)NC(=O)[C@H](C)NC(=O)[C@H](CC(C)C)NC(=O)[C@H](CCCNC(=N)N)NC(=O)[C@H](CCC(N)=O)NC(=O)[C@@H](NC(=O)[C@H](C)NC(=O)[C@@H]1CSSC[C@H](NC(=O)[C@@H](N)CCCCNC(=O)CC[C@H](NC(=O)CC[C@H](NC(=O)CCCCCCCCCCCCCCCCCCC(=O)O)C(=O)O)C(=O)O)C(=O)N[C@@H](CC(N)=O)C(=O)N[C@@H]([C@@H](C)O)C(=O)N[C@@H](C)C(=O)N[C@@H]([C@@H](C)O)C(=O)N1)[C@@H](C)O)C(=O)N[C@@H](CC(C)C)C(=O)N[C@@H](CO)C(=O)N[C@@H](CO)C(=O)N[C@H](C(=O)N[C@@H](CC(N)=O)C(=O)N[C@H](C(=O)NCC(=O)N[C@@H](CO)C(=O)N[C@@H](CC(=O)O)C(=O)N[C@H](C(=O)N[C@@H](Cc1ccc(O)cc1)C(N)=O)[C@@H](C)O)C(C)C)[C@@H](C)O [Peptide 3] (H-K([γGlu-γGlu-C20 diacid])CNTATCATQRLADFLRHSSPNFGPILSSTNVGSDTY-NH2; disulfide 2-7) | 
5 |  |  | 8.86 | CC(C)C[C@H](NC(=O)[C@H](CCCNC(=N)N)NC(=O)[C@H](CCC(N)=O)NC(=O)[C@@H](NC(=O)[C@H](C)NC(=O)[C@@H]1CSSC[C@H](NC(=O)[C@@H](N)CCCCNC(=O)CC[C@H](NC(=O)CC[C@H](NC(=O)CCCCCCCCCCCCCCCCCCC(=O)O)C(=O)O)C(=O)O)C(=O)N[C@@H](CC(N)=O)C(=O)N[C@@H]([C@@H](C)O)C(=O)N[C@@H](C)C(=O)N[C@@H]([C@@H](C)O)C(=O)N1)[C@@H](C)O)C(=O)N[C@@H](C)C(=O)N[C@@H](CC(=O)O)C(=O)N[C@@H](Cc1ccccc1)C(=O)N[C@@H](CC(C)C)C(=O)N[C@@H](CCCNC(=N)N)C(=O)N[C@@H](Cc1c[nH]cn1)C(=O)N[C@@H](CO)C(=O)N[C@@H](CO)C(=O)N[C@@H](CC(N)=O)C(=O)N1CCC[C@H]1C(=O)N[C@@H](Cc1ccccc1)C(=O)NCC(=O)N[C@@H](C)C(=O)N1CCC[C@H]1C(=O)N[C@@H](CC(C)C)C(=O)N[C@@H](CO)C(=O)N[C@@H](CO)C(=O)N[C@H](C(=O)N[C@@H](CC(N)=O)C(=O)N[C@H](C(=O)NCC(=O)N[C@@H](CO)C(=O)N[C@@H](CC(=O)O)C(=O)N[C@H](C(=O)N[C@@H](Cc1ccc(O)cc1)C(N)=O)[C@@H](C)O)C(C)C)[C@@H](C)O [Peptide 7] (H-K([γGlu-γGlu-C20 diacid])CNTATCATQRLADFLRHSSNPFGAPLSSTNVGSDTY-NH2; disulfide 2-7) | 
6 | 0.316 | 0.314 |  | CC[C@H](C)[C@H](NC(=O)[C@H](C)NC(=O)CNC(=O)[C@H](Cc1ccccc1)NC(=O)[C@H](CC(N)=O)NC(=O)[C@@H]1CCCN1C(=O)[C@H](CO)NC(=O)[C@H](CO)NC(=O)[C@H](Cc1c[nH]cn1)NC(=O)[C@H](CCCNC(=N)N)NC(=O)[C@H](CC(C)C)NC(=O)[C@H](Cc1ccccc1)NC(=O)[C@H](CCC(=O)O)NC(=O)[C@H](C)NC(=O)[C@H](CC(C)C)NC(=O)[C@H](CCCNC(=N)N)NC(=O)[C@H](CCC(N)=O)NC(=O)[C@@H](NC(=O)[C@H](C)NC(=O)[C@@H]1CSSC[C@H](NC(=O)[C@H](CCCCN)NC(=O)CC[C@H](NC(=O)CCCCCCCCCCCCCCCCCCC(=O)O)C(=O)O)C(=O)N[C@@H](CC(N)=O)C(=O)N[C@@H]([C@@H](C)O)C(=O)N[C@@H](C)C(=O)N[C@@H]([C@@H](C)O)C(=O)N1)[C@@H](C)O)C(=O)N1CCC[C@H]1C(=O)N[C@@H](CO)C(=O)N[C@@H](CO)C(=O)N[C@H](C(=O)N[C@@H](CC(N)=O)C(=O)N[C@H](C(=O)NCC(=O)N1CCC[C@H]1C(=O)N[C@@H](CC(N)=O)C(=O)N[C@H](C(=O)N[C@@H](Cc1ccc(O)cc1)C(N)=O)[C@@H](C)O)C(C)C)[C@@H](C)O [Peptide 12] ({C20 diacid-γGlu}-KCNTATCATQRLAEFLRHSSPNFGAIPSSTNVGPNTY-NH2; disulfide 2-7) | 7 ± 7
